{
  "source": "patent US20230173090A1",
  "about": "“COMPOSITIONS AND METHODS FOR MODULATING DOPAMINE RECEPTOR ACTIVITY” (The Regents of the University of California, priority 2020, published 2023)",
  "key": {"[1]": {"molecular_target": "dStr-dMSN D1Rs (Mus musculus, UniProt Q61616)", "sequence (Q61616 whole entry, the tested form may be a part)": "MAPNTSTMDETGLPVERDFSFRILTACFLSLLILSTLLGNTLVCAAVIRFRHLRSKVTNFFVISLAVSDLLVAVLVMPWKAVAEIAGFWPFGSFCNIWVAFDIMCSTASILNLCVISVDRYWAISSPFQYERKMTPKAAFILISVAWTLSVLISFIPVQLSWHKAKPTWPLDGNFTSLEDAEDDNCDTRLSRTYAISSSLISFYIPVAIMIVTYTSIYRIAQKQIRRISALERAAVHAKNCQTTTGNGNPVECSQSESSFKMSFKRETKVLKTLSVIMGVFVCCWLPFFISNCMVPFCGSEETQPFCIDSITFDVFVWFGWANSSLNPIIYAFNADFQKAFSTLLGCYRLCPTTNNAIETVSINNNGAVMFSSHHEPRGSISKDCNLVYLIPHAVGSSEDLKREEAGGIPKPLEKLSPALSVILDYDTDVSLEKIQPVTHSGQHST", "assay": "Open field test, MP-D1ago in dStr-dMSNs of D1-Cre mice", "settings": "trans-P-D1ago 100 µM, 1 µL bilateral dStr-infusion, mice expressing the M", "text": "The mice were 20-30 grams and 8-20 weeks old. […] Mice were maintained on a 12:12 light cycle (lights on at 07:00).\nThe sub-second velocity traces recorded using Biobserve were smoothed in MATLAB using a first order Butterworth filter (normalized cutoff frequency ωu = 0.02). Using original code written in MATLAB, a velocity threshold was manually set to distinguish movements from tracking artifacts, as verified by visual inspection of each movie. Movement bouts were counted when the velocity surpassed this threshold and lasted for at least 0.3 seconds. Bouts were considered finished after the velocity remained below the manually defined threshold for 0.1 seconds. The percent time moving was calculated as the time that velocity was above the movement threshold divided by the time of the entire measurement. Movement initiation frequency was calculated as the number of times velocity surpassed the movement threshold per second. Movement bout duration was calculated by averaging the duration of all movement bouts that occurred during the entire measurement. Max velocity was calculated by averaging the maximum velocity of all movement bouts that occurred during the entire measurement."}, "[2]": {"tested_on": "membrane-anchor (M) (SNAP-tag)", "assay": "Labeling of the membrane-anchor (M) at the cell surface: block of BG-Alexa647 binding, imaging and flow cytometry", "format": "cell-based", "settings": "1 µM for 1 hour, then 1.5 µM BG-Alexa647 for 30 minutes", "method": "Untransfected or membrane-anchor (M) expressing HEK293T cells were labeled with 1.5 µM BG-TMR or BG-Alexa647 (NEB) for 20-30 minutes in the dark at 37° C. and 5% CO2 in a standard extracellular solution. Cells were then (i) mounted on an upright, scanning confocal microscope (Zeiss LSM 780) and imaged with a 20x objective or (ii) washed in DPBS and measured by flow cytometry (BD LSR II).\nFIGS. 8A-8D. Photophysical properties of P-D1ago. (A) Absorbance spectra of P-D1ago under blue light (460 nm; blue) and UV light (370 nm; grey). (B) P-D1ago repeatedly switches from its trans to cis isomer with UV light and back to trans with blue light. […] Cells were incubated for 1 hour with vehicle (left upper panels), 1 µM surface block (left middle panels), or 1 µM P-D1ago (left lower panels), and were then labeled for 30 minutes with 1.5 µM BG-Alexa647. Cytosolic tdTomato was used as a transfection marker, grey bar = […]. A summary of labeling according to flow cytometry is shown on the right. unpaired two-sided t-test, p = 0.60. n = 3-6 replicates per condition. (D) M labeling as a function of the concentration of P-D1ago. The M was incubated for 1 hour with increasing concentrations of P-D1ago, and then labeled for 30 minutes with 1.5 µM BG-Alexa647. Labeling was measured by flow cytometry. […] Labeling was measured by flow cytometry. n = 3-4 replicates per condition. […]"}, "[3]": {"assay": "Photophysical properties (absorbance, photoswitching)", "format": "physicochemical", "method": "FIGS. 8A-8D. Photophysical properties of P-D1ago. (A) Absorbance spectra of P-D1ago under blue light (460 nm; blue) and UV light (370 nm; grey). (B) P-D1ago repeatedly switches from its trans to cis isomer with UV light and back to trans with blue light. […] Cells were incubated for 1 hour with vehicle (left upper panels), 1 µM surface block (left middle panels), or 1 µM P-D1ago (left lower panels), and were then labeled for 30 minutes with 1.5 µM BG-Alexa647. Cytosolic tdTomato was used as a transfection marker, grey bar = […]. A summary of labeling according to flow cytometry is shown on the right. unpaired two-sided t-test, p = 0.60. n = 3-6 replicates per condition. (D) M labeling as a function of the concentration of P-D1ago. The M was incubated for 1 hour with increasing concentrations of P-D1ago, and then labeled for 30 minutes with 1.5 µM BG-Alexa647. Labeling was measured by flow cytometry. (E) Time course of M labeling with P-D1ago. The M was incubated for different times with 1 µM P-D1ago, and then labeled for 30 minutes with 1.5 µM BG-Alexa647. Labeling was measured by flow cytometry. n = 3-4 replicates per condition. […] This contrasts with the commercially available permeant benzylguanine analog, cell block. […] Cytosolic mTurquoise was used as a transfection marker, grey bar = […]. A summary of labeling according to flow cytometry is shown on the right. unpaired two-sided t-test, ***p < 0.001. n = 3 replicates per condition."}, "[4]": {"molecular_target": "T1, SNAP-D1R (Homo sapiens, UniProt P21728)", "T1 construct": "expressed in transfected cells; host or cells: HEK293T", "T1 sequence (P21728 with tags, fused parts or gaps)": "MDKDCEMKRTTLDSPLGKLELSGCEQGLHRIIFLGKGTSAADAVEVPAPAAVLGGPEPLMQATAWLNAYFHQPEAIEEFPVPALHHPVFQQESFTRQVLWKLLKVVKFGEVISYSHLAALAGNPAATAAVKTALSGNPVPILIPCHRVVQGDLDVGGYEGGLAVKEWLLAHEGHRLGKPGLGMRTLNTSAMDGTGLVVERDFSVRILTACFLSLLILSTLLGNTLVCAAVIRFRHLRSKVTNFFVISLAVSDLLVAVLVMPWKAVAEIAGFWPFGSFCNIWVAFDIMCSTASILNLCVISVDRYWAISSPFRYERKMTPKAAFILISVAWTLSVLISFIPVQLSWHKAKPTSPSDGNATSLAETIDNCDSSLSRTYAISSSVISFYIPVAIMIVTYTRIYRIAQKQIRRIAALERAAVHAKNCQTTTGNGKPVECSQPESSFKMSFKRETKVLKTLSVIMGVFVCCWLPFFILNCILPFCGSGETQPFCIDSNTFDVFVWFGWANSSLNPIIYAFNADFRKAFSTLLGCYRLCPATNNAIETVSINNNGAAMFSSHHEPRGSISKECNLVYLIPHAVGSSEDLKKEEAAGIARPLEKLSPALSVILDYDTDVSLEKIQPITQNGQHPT", "assay": "SNAP-D1R photoactivation, GIRK assay in HEK293T cells", "format": "cell-based", "settings": "P-D1ago tethered to SNAP-tag fused to the N-terminus of D1R", "excerpt": "To test the ability of P-D1ago to photo-activate D1R, it was attached directly to a version of D1R that has SNAP fused to its extracellular N-terminus, which is adjacent to the ligand binding site of the receptor. SNAP-D1R was co-expressed in HEK293T cells with the G protein-coupled inwardly rectifying potassium (GIRK) channel as an effector. […] P-D1ago was attached to the M, which was co-expressed in HEK293T cells with the native D1R and the GIRK channel. […] To optimize D1R photoactivation, the geometric positioning of P-D1ago was adjusted using variants of M with “lift” peptides between the SNAP-tag and transmembrane segment. Photoactivation increased with an M variant containing a rigid, α-helical EAAAK (SEQ ID NO: 13) peptide (MEAAAK (SEQ ID NO: 16); FIG. 2B, C, and E) and decreased as the lift peptide was further extended (FIGS. 11D-11F), presumably because P-D1ago “rises” too far from the cell surface.\nFIGS. 10A-10C. […] (A) Schematic representation of P-D1ago tethered to a SNAP-tag fused directly to the extracellular N-terminus of D1R. (B) Representative trace of SNAP-D1R photoactivation by P-D1ago according to the GIRK assay. […] (C) Summary of SNAP-D1R photoactivation by P-D1ago relative to a saturating concentration of DA (10 µM). n = 5 cells."}, "[5]": {"molecular_target": "T2, intracellular SNAP-tag (Homo sapiens, UniProt P16455, A127T/A154D/C150Q/C62A/E30R/G131K/G132T/G153L/K125A/K32I/L33F/M134L/N157G/Q115S/Q116H/R128A/R135S/S151G/S152D/S159E)", "T2 construct": "expressed in transfected cells", "T2 sequence (P16455 1-182 E30R/K32I/L33F/C62A/Q115S/Q116H/K125A/A127T/R128A/G131K/G132T/M134L/R135S/C150Q/S151G/S152D/G153L/A154D/N157G/S159E limits assumed)": "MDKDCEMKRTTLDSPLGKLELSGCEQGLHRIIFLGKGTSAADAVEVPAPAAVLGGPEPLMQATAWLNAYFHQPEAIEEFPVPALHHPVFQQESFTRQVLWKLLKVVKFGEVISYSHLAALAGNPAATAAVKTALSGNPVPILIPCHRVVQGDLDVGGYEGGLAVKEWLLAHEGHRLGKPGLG", "assay": "Block of BG-TMRstar binding to intracellular SNAP-tag expressed in the cytosol", "format": "cell-based", "settings": "1 µM for 1 hour, then 1.5 µM BG-TMRstar for 20 minutes"}, "[6]": {"molecular_target": "T3, GIRK channels (Homo sapiens, UniProt P48549, F137S)", "T3 sequence (P48549 1-501 F137S)": "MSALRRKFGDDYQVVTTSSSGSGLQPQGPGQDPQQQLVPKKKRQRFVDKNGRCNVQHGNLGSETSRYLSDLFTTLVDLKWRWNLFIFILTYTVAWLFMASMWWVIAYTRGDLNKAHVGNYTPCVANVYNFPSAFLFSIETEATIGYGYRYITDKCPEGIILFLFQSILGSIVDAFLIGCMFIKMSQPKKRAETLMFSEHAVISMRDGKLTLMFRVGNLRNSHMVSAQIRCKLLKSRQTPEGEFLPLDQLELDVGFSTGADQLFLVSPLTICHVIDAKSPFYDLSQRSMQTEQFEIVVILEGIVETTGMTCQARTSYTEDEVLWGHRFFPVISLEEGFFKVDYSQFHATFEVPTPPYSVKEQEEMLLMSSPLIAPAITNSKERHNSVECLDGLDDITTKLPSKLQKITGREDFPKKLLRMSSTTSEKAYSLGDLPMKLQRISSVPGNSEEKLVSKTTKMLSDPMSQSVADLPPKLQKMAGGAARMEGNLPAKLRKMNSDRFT", "settings": "1 µM P-D1ago labeled cells without D1R; % of 3 mM BaCh, a GIRK channel blocker; n = 5 cells"}},
  "data": [
    {"smiles": "CCCN(CCc1ccc(N=Nc2ccc(NC(=O)CNC(=O)CCOCCOCCOCCOCCOCCOCCOCCOCCOCCOCCOCCOCCn3cc(CCC(=O)NCc4ccc(COc5nc(N)nc6nc[nH]c56)cc4)nn3)cc2)cc1)C1CCc2c(O)cccc2C1", "note": "(centres unmarked) [P-D1ago, Benzylguanine-azobenzene-PPHT]", "values": [
      {"measurement": "persistence of increased motor activity", "setting": "[1]", "value": "remained high for many hours"},
      {"measurement": "return of motor activity to baseline", "setting": "[1]", "value": "returned to baseline over a two-day period"},
      {"measurement": "time to increase of motor activity after start of infusion", "setting": "[1]; dark", "value": "≤ 30", "unit": "min"},
      {"measurement": "binding to the M at the cell surface (block of BG-Alexa647 binding)", "setting": "[2]", "value": "almost completely"},
      {"measurement": "binding to the M at the cell surface (block of BG-Alexa647 binding)", "setting": "[2]; listed as P-Dlago", "value": "binds efficiently"},
      {"measurement": "wavelength switching trans-isomer to cis-isomer", "setting": "[3]; UV light", "value": 370, "unit": "nm"},
      {"measurement": "wavelength switching cis-isomer back to trans-isomer", "setting": "[3]; blue light", "value": 460, "unit": "nm"},
      {"measurement": "stability of the cis state", "setting": "[3]; in the dark after illumination with UV light", "value": "stable in the cis state in the dark"},
      {"measurement": "SNAP-D1R photoactivation", "setting": "[4]", "value": "photoactivates D1R in response to blue light and is deactivated with UV light"},
      {"measurement": "block of BG-TMRstar binding to intracellular SNAP-tag (membrane permeation)", "setting": "[5]", "value": "does not effectively prevent the binding"},
      {"measurement": "effect of switching from UV light to blue light on basal current", "setting": "[6]", "value": "1.3 ± 1.0", "unit": "%"}
    ]}
  ]
}
